Assay results reported in ChEMBL document CHEMBL4507294, “Data for DCP probe MSD-CYP11B2” (2021).

What was measured:
[1] = molecular target: Inhibitor of nuclear factor kappa-B kinase subunit epsilon (Homo sapiens) (UniProt Q14164); conditions: Compound concentration 1000.0 nM
[2] = molecular target: Dual specificity mitogen-activated protein kinase kinase 4 (Homo sapiens) (UniProt P45985); conditions: Compound concentration 1000.0 nM
[3] = system: Tyrosine-protein kinase ABL1 (Homo sapiens), P00519 [T315I]; conditions: Compound concentration 1000.0 nM
[4] = molecular target: Insulin receptor-related protein (Homo sapiens) (UniProt P14616); conditions: Compound concentration 1000.0 nM
[5] = molecular target: T1, Muscarinic acetylcholine receptor M2 (Homo sapiens) (UniProt P08172); conditions: Compound concentration 10.0 uM
T1 sequence (whole entry): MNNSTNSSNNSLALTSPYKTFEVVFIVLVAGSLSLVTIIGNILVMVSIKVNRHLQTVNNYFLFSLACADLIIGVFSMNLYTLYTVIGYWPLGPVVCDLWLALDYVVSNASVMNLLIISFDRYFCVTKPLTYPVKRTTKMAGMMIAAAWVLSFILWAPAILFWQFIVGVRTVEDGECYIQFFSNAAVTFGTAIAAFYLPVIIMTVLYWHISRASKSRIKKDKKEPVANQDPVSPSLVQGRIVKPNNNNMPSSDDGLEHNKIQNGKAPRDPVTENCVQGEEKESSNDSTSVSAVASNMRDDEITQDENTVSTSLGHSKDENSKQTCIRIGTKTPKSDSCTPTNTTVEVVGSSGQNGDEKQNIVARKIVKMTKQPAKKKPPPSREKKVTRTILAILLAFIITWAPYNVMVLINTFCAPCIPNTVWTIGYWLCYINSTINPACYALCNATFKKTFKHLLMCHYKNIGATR

[6] = molecular target: Protein kinase C epsilon type (Homo sapiens) (UniProt Q02156); conditions: Compound concentration 1000.0 nM
Protein kinase C epsilon type (Homo sapiens), sequence (Q02156 whole entry): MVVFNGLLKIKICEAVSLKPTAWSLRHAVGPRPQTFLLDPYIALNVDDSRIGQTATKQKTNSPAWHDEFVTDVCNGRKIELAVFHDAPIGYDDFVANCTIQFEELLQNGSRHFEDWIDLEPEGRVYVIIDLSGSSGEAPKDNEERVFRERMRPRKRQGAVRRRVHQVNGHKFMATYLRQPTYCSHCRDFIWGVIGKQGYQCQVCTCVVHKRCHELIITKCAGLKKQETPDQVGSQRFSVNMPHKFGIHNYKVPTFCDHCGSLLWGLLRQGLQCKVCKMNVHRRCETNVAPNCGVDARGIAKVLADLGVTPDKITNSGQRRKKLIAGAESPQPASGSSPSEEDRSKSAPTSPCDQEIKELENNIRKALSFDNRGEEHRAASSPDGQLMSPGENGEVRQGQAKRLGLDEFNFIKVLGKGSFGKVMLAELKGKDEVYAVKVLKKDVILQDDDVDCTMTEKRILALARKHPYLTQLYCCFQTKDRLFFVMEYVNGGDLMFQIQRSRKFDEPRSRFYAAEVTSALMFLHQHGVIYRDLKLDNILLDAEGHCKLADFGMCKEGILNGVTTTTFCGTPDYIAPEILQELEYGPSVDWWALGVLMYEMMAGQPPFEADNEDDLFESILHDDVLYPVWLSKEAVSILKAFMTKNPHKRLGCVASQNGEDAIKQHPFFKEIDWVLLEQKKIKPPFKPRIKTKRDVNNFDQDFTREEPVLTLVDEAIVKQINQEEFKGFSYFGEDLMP

[7] = molecular target: G protein-coupled receptor kinase 3 (Homo sapiens) (UniProt P35626); conditions: Compound concentration 1000.0 nM
G protein-coupled receptor kinase 3 (Homo sapiens), sequence (P35626 whole entry): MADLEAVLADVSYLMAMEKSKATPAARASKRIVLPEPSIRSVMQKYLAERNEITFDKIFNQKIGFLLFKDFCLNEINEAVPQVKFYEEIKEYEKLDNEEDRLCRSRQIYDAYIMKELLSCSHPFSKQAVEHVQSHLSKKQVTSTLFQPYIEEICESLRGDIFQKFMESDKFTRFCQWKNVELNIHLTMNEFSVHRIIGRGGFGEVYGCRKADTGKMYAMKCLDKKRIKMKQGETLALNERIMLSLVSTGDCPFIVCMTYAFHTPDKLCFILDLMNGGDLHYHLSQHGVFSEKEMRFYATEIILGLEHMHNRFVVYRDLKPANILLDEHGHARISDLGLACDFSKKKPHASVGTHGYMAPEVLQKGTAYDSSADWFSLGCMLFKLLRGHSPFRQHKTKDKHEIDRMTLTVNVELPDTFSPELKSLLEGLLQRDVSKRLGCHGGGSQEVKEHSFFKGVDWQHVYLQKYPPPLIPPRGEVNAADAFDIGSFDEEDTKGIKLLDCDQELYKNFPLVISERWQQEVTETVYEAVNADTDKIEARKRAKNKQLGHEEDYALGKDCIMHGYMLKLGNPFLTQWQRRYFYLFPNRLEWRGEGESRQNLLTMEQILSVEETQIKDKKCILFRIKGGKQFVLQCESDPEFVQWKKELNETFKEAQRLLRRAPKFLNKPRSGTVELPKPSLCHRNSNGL

[8] = molecular target: Mitogen-activated protein kinase kinase kinase 3 (Homo sapiens) (UniProt Q99759); conditions: Compound concentration 1000.0 nM
[9] = molecular target: Casein kinase I isoform gamma-2 (Homo sapiens) (UniProt P78368); conditions: Compound concentration 1000.0 nM
Casein kinase I isoform gamma-2 (Homo sapiens), sequence (P78368 whole entry, looked up, canonical isoform): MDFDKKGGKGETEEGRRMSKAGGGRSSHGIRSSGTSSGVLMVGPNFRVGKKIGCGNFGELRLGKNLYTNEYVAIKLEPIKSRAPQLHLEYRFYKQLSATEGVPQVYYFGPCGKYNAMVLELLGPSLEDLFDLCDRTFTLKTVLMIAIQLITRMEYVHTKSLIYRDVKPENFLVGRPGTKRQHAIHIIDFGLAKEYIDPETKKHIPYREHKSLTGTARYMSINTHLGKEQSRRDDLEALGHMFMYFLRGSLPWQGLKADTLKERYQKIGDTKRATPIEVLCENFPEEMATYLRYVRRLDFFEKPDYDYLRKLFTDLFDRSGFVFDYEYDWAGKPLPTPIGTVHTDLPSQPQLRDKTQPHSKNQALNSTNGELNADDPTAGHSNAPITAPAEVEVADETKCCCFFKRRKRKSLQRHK

[10] = molecular target: Serine/threonine-protein kinase PRP4 homolog (Homo sapiens) (UniProt Q13523); conditions: Compound concentration 1000.0 nM
[11] = molecular target: Receptor tyrosine-protein kinase erbB-2 (Homo sapiens) (UniProt P04626); conditions: Compound concentration 1000.0 nM
[12] = system: Hepatocyte growth factor receptor (Homo sapiens), P08581 [M1250T]; conditions: Compound concentration 1000.0 nM
[13] = system: Tyrosine-protein kinase ABL1 (Homo sapiens), P00519 [Q252H]; conditions: Compound concentration 1000.0 nM
[14] = molecular target: Mitogen-activated protein kinase kinase kinase kinase 4 (Homo sapiens) (UniProt O95819); conditions: Compound concentration 1000.0 nM
[15] = molecular target: Insulin-like growth factor 1 receptor (Homo sapiens) (UniProt P08069); conditions: Compound concentration 1000.0 nM
[16] = molecular target: Tyrosine-protein kinase Lyn (Homo sapiens) (UniProt P07948); conditions: Compound concentration 1000.0 nM
Tyrosine-protein kinase Lyn (Homo sapiens), sequence (P07948 2-512 limits assumed): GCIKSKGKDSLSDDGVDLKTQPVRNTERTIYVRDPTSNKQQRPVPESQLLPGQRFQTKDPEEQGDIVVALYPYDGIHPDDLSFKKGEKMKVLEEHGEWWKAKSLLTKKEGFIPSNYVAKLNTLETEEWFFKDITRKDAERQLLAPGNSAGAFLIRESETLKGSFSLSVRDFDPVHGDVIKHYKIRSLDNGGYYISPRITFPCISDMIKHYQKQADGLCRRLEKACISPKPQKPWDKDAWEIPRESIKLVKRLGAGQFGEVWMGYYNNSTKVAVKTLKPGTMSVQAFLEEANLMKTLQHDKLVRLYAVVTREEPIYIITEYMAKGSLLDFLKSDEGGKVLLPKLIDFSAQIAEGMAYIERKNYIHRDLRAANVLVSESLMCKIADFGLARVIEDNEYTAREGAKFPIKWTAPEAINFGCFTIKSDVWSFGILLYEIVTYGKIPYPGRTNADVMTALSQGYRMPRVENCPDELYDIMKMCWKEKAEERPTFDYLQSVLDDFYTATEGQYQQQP

[17] = molecular target: Tyrosine-protein kinase Fgr (Homo sapiens) (UniProt P09769); conditions: Compound concentration 1000.0 nM
[18] = molecular target: Mitogen-activated protein kinase kinase kinase 2 (Homo sapiens) (UniProt Q9Y2U5); conditions: Compound concentration 1000.0 nM
Mitogen-activated protein kinase kinase kinase 2 (Homo sapiens), sequence (Q9Y2U5 whole entry): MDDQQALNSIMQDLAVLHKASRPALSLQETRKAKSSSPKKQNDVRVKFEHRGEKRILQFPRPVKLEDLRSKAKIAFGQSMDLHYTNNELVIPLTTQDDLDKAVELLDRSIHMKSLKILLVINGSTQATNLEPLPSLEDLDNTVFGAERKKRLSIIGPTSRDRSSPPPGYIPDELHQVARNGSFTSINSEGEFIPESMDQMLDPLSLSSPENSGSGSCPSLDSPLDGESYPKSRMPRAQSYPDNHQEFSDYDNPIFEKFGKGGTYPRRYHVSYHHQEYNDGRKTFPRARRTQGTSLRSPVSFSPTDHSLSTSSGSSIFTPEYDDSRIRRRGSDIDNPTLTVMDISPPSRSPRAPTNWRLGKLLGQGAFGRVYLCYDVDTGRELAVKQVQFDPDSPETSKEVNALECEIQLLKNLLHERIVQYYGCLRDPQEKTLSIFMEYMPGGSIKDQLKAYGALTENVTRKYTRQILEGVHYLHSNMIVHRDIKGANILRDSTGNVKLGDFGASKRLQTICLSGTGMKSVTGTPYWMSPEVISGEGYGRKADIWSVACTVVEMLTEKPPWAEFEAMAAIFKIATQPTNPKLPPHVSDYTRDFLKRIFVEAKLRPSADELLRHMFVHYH

[19] = molecular target: Insulin receptor (Homo sapiens) (UniProt P06213); conditions: Compound concentration 1000.0 nM
[20] = molecular target: Serine/threonine-protein kinase DCLK3 (Homo sapiens) (UniProt Q9C098); conditions: Compound concentration 1000.0 nM
[21] = molecular target: Ribosomal protein S6 kinase alpha-5 (Homo sapiens) (UniProt O75582); conditions: Compound concentration 1000.0 nM
[22] = system: Epidermal growth factor receptor (Homo sapiens), P00533 [UNDEFINED MUTATION]; conditions: Compound concentration 1000.0 nM
Epidermal growth factor receptor (Homo sapiens), P00533 [UNDEFINED MUTATION], sequence (P00533 whole entry, looked up, change not shown): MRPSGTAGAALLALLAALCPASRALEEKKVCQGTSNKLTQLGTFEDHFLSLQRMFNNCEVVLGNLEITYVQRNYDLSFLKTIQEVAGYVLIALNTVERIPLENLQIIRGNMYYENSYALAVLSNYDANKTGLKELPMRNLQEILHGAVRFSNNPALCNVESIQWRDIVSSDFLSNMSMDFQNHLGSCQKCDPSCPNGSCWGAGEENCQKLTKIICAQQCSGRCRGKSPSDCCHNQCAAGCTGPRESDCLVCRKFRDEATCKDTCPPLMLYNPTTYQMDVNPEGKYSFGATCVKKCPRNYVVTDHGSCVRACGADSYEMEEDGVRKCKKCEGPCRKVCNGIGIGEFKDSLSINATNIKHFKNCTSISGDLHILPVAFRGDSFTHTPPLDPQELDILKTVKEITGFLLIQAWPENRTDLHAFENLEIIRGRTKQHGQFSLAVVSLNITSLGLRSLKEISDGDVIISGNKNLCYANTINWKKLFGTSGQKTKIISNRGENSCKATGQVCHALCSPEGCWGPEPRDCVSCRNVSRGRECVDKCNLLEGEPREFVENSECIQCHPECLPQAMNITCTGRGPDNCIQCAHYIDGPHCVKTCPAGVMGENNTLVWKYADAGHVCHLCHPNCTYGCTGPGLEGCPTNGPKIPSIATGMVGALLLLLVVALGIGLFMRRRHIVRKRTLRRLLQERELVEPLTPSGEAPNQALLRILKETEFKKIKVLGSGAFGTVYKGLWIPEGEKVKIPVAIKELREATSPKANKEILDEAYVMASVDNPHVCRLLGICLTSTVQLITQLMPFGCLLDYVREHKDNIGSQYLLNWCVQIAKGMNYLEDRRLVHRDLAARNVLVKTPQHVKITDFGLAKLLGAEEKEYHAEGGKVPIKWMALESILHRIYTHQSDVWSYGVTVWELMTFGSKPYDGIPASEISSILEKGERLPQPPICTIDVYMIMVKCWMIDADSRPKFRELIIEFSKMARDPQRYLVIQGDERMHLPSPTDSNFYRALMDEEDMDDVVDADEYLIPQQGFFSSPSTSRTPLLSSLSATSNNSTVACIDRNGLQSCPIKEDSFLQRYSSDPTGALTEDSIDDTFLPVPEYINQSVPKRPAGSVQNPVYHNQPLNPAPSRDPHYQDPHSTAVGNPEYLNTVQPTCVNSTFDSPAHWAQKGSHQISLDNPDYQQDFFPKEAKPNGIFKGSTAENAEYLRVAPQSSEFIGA

[23] = molecular target: TRAF2 and NCK-interacting protein kinase (Homo sapiens) (UniProt Q9UKE5); conditions: Compound concentration 1000.0 nM
[24] = molecular target: Cyclin-dependent kinase 18 (Homo sapiens) (UniProt Q07002); conditions: Compound concentration 1000.0 nM
[25] = system: Phosphatidylinositol 4,5-bisphosphate 3-kinase catalytic subunit alpha isoform (Homo sapiens), P42336 [H1047L]; conditions: Compound concentration 1000.0 nM
[26] = system: Receptor-type tyrosine-protein kinase FLT3 (Homo sapiens), P36888 [UNDEFINED MUTATION]; conditions: Compound concentration 1000.0 nM
[27] = molecular target: Muscarinic acetylcholine receptor M3 (Homo sapiens) (UniProt P20309); conditions: Compound concentration 10.0 uM
[28] = molecular target: Sodium-dependent noradrenaline transporter (Homo sapiens) (UniProt P23975); conditions: Compound concentration 10.0 uM
[29] = molecular target: Serine/threonine-protein kinase NLK (Homo sapiens) (UniProt Q9UBE8); conditions: Compound concentration 1000.0 nM
[30] = molecular target: Serine/threonine-protein kinase 17B (Homo sapiens) (UniProt O94768); conditions: Compound concentration 1000.0 nM
[31] = molecular target: Maternal embryonic leucine zipper kinase (Homo sapiens) (UniProt Q14680); conditions: Compound concentration 1000.0 nM
[32] = system: Epidermal growth factor receptor (Homo sapiens), P00533 [UNDEFINED MUTATION]; conditions: Compound concentration 1000.0 nM; remark: listed apart in the source
[33] = molecular target: Mitogen-activated protein kinase 15 (Homo sapiens) (UniProt Q8TD08); conditions: Compound concentration 1000.0 nM
[34] = molecular target: Serine/threonine-protein kinase 24 (Homo sapiens) (UniProt Q9Y6E0); conditions: Compound concentration 1000.0 nM
[35] = molecular target: NUAK family SNF1-like kinase 1 (Homo sapiens) (UniProt O60285); conditions: Compound concentration 1000.0 nM
[36] = molecular target: Tyrosine-protein kinase TXK (Homo sapiens) (UniProt P42681); conditions: Compound concentration 1000.0 nM
Tyrosine-protein kinase TXK (Homo sapiens), sequence (P42681 whole entry): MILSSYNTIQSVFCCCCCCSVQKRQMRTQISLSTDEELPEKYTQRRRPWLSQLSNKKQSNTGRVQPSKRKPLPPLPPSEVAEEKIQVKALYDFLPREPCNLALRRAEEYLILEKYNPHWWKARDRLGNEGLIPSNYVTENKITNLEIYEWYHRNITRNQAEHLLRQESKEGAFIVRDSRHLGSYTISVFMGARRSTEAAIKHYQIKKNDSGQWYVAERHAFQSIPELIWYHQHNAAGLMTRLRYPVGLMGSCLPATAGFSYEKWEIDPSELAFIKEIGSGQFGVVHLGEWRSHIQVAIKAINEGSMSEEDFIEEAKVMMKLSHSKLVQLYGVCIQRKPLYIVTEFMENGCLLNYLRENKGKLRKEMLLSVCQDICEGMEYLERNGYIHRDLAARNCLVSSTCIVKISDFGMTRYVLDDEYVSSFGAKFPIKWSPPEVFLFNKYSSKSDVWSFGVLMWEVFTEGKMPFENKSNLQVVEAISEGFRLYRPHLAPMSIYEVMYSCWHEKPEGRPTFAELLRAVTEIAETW

[37] = molecular target: Membrane-associated tyrosine- and threonine-specific cdc2-inhibitory kinase (Homo sapiens) (UniProt Q99640); conditions: Compound concentration 1000.0 nM
[38] = molecular target: Cyclin-dependent kinase 5 (Homo sapiens) (UniProt Q00535); conditions: Compound concentration 1000.0 nM
Cyclin-dependent kinase 5 (Homo sapiens), sequence (Q00535 whole entry, looked up): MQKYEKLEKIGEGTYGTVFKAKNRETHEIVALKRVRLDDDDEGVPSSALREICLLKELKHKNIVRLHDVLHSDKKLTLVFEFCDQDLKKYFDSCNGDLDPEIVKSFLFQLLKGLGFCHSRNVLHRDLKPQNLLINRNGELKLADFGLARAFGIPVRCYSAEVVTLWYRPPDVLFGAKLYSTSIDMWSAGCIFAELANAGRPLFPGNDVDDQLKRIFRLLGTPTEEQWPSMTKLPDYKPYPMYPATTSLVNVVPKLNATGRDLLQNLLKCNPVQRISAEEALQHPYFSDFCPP

CC(C)(O)c1cncc(-c2nc3ccc(F)cc3n2C2CC2)c1 [MSD-CYP11B2]
inactive: residual activity [1] 100% | residual activity [2] 100% | residual activity [3] 100% | residual activity [4] 100% | inhibition [5] -0.1% | residual activity [6] 100% | residual activity [7] 79% | residual activity [8] 99% | residual activity [9] 100% | residual activity [10] 58% | residual activity [11] 100% | residual activity [12] 100% | residual activity [13] 100% | residual activity [14] 72% | residual activity [15] 100% | residual activity [16] 100% | residual activity [17] 100% | residual activity [18] 100% | residual activity [19] 100% | residual activity [20] 100% | residual activity [21] 100% | residual activity [22] 100% | residual activity [23] 100% | residual activity [24] 100% | residual activity [25] 97% | residual activity [26] 100% | inhibition [27] 1.04% | inhibition [28] 2.3% | residual activity [29] 100% | residual activity [30] 77% | residual activity [31] 100% | residual activity [32] 100% | residual activity [33] 90% | residual activity [34] 100% | residual activity [35] 100% | residual activity [36] 92% | residual activity [37] 100% | residual activity [38] 100%

FC(F)(F)c1ccc2c(c1)nc(-c1cccnc1)n2C1CC1 [MSD-CYP11B2-Negative-control]
inactive: residual activity [1] 100% | residual activity [2] 100% | residual activity [3] 100% | residual activity [4] 100% | inhibition [5] 2.99% | residual activity [6] 97% | residual activity [7] 76% | residual activity [8] 100% | residual activity [9] 100% | residual activity [10] 98% | residual activity [11] 100% | residual activity [12] 100% | residual activity [13] 100% | residual activity [14] 100% | residual activity [15] 100% | residual activity [16] 82% | residual activity [17] 100% | residual activity [18] 100% | residual activity [19] 100% | residual activity [20] 100% | residual activity [21] 100% | residual activity [22] 100% | residual activity [23] 100% | residual activity [24] 100% | residual activity [25] 100% | residual activity [26] 100% | inhibition [27] -1.22% | inhibition [28] 17.2% | residual activity [29] 100% | residual activity [30] 100% | residual activity [31] 94% | residual activity [32] 100% | residual activity [33] 100% | residual activity [34] 100% | residual activity [35] 100% | residual activity [36] 100% | residual activity [37] 100% | residual activity [38] 100%
